From ChEMBL document CHEMBL1201862, “PubChem BioAssay data set” (2004)
Several values for one entry are separate records, joined by “and”; a condition that tells them apart may be missing. Equal entries are not always repeated. Activity calls are given as the source filed them.

Experiments:
[1] = biological target: Apoptotic protease-activating factor 1 (Homo sapiens, UniProt O14727); test: SAR analysis of small molecule Activators of Apaf-1 in a Fluorescent assay.; format: functional; conditions: read-out: EC50_Mean;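 further: caspase-3 cleavage of fluorogenic Rh110 DEVD substrate downstream of apoptosome activation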
Caspase-3 [2] = biological target: T1, Caspase-3 (Homo sapiens, UniProt P42574); test: caspase-3 inhibitors as off-family protease, SAR follow-up, selectivity assay for SENP protease inhibitor project, biochemical, luminescence, set 2 (AID 588599); format: functional
T1 sequence (P42574 whole entry): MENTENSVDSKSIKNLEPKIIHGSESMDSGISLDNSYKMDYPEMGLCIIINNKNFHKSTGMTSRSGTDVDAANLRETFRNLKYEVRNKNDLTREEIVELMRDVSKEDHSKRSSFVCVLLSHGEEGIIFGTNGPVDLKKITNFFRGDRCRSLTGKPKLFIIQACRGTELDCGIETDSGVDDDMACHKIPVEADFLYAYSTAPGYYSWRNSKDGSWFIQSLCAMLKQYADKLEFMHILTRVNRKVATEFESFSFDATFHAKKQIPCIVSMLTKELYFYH

[3] = biological target: T2, Sentrin-specific protease 8 (Homo sapiens, UniProt Q96LD8); test: SENP8 protease inhibitors, SAR follow-up, biochemical, luminescence, set 2 (AID 588601); format: functional
T2 sequence (Q96LD8 whole entry): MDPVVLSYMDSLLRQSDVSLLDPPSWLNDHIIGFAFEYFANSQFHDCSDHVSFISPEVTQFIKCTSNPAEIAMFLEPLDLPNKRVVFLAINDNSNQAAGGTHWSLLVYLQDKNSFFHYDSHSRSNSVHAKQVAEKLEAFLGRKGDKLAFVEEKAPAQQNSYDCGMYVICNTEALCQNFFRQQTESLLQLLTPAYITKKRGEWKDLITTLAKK

[4] = biological target: T3, Sentrin-specific protease 7 (Homo sapiens, UniProt Q9BQF6); test: SENP7 protease inhibitors, SAR follow-up, biochemical, luminescence, set 2 (AID 588600); format: functional
T3 sequence (Q9BQF6 whole entry): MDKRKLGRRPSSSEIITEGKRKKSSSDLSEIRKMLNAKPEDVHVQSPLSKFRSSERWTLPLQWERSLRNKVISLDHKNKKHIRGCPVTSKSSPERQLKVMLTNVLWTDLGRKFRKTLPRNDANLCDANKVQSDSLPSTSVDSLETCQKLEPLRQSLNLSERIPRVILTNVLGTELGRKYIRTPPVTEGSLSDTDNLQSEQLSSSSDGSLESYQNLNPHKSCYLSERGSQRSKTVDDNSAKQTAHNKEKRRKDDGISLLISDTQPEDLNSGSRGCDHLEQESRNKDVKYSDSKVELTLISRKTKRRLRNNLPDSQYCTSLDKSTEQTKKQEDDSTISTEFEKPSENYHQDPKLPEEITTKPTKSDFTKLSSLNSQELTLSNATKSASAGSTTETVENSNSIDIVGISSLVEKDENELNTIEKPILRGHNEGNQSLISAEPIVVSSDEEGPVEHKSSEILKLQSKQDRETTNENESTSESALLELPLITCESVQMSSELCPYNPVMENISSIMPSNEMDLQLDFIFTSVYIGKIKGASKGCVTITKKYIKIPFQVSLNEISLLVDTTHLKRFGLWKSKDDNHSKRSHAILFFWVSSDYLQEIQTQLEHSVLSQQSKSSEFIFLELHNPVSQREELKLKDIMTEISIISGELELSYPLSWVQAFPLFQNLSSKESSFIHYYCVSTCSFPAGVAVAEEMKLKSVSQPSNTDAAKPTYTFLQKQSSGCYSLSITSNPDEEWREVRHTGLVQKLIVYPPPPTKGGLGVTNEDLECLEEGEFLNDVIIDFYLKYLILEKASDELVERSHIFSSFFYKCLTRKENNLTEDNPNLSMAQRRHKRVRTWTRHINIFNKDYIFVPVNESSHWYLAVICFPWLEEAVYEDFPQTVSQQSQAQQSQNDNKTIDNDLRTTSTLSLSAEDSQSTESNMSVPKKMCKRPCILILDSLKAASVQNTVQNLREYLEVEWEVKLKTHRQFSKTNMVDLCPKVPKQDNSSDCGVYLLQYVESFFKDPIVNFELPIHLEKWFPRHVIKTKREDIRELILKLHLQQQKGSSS

[5] = biological target: T4, Sentrin-specific protease 6 (Homo sapiens, UniProt Q9GZR1); test: SENP6 protease inhibitors, SAR follow-up, biochemical, luminescence, set 2 (AID 588598); format: functional
T4 sequence (Q9GZR1 whole entry): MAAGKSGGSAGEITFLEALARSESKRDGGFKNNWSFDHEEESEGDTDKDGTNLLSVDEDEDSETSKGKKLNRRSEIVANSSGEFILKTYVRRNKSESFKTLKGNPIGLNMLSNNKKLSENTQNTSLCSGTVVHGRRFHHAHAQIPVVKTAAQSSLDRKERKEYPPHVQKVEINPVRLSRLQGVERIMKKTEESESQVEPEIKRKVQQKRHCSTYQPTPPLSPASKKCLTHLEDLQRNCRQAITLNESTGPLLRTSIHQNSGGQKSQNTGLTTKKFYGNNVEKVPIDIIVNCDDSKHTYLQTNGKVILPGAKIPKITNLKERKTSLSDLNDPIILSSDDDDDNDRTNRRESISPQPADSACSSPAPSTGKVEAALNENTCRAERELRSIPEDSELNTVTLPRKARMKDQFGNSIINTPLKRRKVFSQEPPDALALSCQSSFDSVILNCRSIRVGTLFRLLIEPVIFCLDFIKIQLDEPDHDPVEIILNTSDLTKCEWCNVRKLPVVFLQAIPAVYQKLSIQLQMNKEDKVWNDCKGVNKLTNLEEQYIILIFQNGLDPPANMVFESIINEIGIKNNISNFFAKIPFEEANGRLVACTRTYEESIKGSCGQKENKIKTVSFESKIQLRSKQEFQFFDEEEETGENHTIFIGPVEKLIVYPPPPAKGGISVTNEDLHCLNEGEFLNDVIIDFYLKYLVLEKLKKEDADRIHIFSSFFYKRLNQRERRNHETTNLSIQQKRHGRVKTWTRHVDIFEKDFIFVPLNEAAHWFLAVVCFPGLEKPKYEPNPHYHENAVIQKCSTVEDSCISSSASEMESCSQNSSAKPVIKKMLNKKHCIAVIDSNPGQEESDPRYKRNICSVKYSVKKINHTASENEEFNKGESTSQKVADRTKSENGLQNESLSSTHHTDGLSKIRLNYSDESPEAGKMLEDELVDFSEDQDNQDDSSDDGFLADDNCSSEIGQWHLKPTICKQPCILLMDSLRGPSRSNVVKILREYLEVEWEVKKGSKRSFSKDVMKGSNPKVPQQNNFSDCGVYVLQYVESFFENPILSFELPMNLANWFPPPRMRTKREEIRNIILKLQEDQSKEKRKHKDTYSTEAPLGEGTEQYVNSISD

[6] = biological target: T2, Sentrin-specific protease 8; test: SENP8 protease inhibitors, SAR follow-up, biochemical, luminescence (AID 504501); format: functional
Caspase-3 [7] = biological target: T1, Caspase-3; test: SAR Analysis of small molecule inhibitors of Sentrin-specific proteases (SENPs) using a Caspase-3 Selectivity assay. [Related pubchem assays (depositor defined):AID2540, AID2599, AID434973, AID489001]; format: functional
[8] = biological target: T4, Sentrin-specific protease 6; test: SAR Analysis of small molecule inhibitors of Sentrin-specific protease 6 (SENP6) using a Luminescent assay. [Related pubchem assays (depositor defined):AID2582, AID2599]; format: functional
[9] = biological target: T3, Sentrin-specific protease 7; test: SENP7 protease inhibitors, SAR follow-up, biochemical, luminescence (AID 504497); format: functional
Melanocortin receptor 4 = Melanocortin receptor 4 (Homo sapiens, UniProt P32245); test: MC4R antagonist potency on cAMP, dose response, cell-based, TR-FRET, biased antagonists (AID 602298); format: functional;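 further: antagonist potency against agonist-stimulated cAMP production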
[10] = nonselective inhibitors of cellular cAMP signaling, dose response, counter-screen for MC4R biased antagonist project, cell-based, TR-FRET cAMP detection (AID 602305); format: functional;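 further: U2OS cells stimulated with forskolin near its EC80 as the cAMP inducer; potency is for inhibition of forskolin-stimulated cAMP signaling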
[11] = test system: Streptococcus sp. 'group A'; test: growth inhibition of control SK(-) GAS strain, dose response, counter-screen for streptokinase expression inhibitor project, luminescence, kanamycin, BacTiterGlo, confirmation (AID 1900); format: functional, organism-based
Streptokinase A = biological target: T5, Streptokinase A (Streptococcus pyogenes serotype M1, UniProt P10520); test: S. pyogenes streptokinase expression inhibitors, potency, dose response, plasminogen activation absorbance, OD405 (AID 1914); format: functional, Streptococcus pyogenes M1 GAS;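 further: secreted streptokinase activity via plasminogen activation per viability signal from cell pellet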
T5 sequence (P10520 whole entry): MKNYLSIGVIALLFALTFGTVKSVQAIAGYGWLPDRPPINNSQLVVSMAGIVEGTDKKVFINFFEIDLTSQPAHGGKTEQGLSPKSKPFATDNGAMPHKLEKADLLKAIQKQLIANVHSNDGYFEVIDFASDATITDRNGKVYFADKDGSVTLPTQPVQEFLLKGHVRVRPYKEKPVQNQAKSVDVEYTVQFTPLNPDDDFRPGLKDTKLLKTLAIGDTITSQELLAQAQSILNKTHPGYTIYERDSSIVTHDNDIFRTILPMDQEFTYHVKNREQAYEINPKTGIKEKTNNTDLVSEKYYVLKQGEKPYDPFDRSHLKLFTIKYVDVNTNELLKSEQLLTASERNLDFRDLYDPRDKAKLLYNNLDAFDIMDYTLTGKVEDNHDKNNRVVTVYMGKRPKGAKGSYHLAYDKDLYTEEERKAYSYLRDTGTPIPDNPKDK

Streptococcus = test: Group A Streptococcus viability loss, dose response, counter-screen for streptokinase expression inhibitor project, luminescence, BacTiterGlo (AID 1915); format: functional, organism-based;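 further: potency for reduction of bacterial viability or growth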
Hexokinase HKDC1 = biological target: T6, Hexokinase HKDC1 (Homo sapiens, UniProt Q2TB90); test: HKDC1 hexokinase inhibitors, dose response, biochemical, W721R variant (AID 504729); format: functional
T6 sequence (Q2TB90 whole entry): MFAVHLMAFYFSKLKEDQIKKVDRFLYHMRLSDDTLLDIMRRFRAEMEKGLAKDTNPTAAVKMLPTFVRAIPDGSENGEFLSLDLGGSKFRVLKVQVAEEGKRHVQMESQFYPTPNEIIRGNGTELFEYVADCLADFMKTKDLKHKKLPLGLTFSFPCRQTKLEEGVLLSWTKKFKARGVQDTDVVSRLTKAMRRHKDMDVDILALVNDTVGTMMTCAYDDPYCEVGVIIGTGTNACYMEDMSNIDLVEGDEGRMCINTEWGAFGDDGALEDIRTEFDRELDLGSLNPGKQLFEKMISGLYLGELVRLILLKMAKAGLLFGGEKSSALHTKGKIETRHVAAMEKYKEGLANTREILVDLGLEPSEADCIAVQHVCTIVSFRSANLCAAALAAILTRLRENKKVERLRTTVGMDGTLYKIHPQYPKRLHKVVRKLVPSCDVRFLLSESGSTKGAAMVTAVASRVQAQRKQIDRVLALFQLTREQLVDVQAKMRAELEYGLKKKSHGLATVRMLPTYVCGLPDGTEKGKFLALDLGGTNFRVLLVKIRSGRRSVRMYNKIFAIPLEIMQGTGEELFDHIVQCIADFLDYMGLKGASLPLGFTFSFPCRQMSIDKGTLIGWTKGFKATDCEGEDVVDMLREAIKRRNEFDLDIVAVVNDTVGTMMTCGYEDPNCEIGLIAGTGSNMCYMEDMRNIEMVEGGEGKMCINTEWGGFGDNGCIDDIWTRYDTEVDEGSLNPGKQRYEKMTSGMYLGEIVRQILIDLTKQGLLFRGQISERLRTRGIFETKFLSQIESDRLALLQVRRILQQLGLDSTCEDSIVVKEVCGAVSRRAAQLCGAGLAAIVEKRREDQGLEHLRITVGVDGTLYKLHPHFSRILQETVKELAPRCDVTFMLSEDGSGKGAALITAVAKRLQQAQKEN

Vero [12] = test: Vero cell cytotoxicity, cytotoxicity control for flavivirus capping enzyme inhibitors (AID 588742); format: functional; conditions: Chlorocebus sabaeus
Vero [13] = test: cells; format: functional; conditions: Chlorocebus sabaeus
Genome polyprotein = Genome polyprotein (dengue virus type 2, UniProt P29990); test: Dengue-2 NS5 methyltransferase inhibitors, primary screen, biochemical, confirmation dose response (AID 588689); format: functional
[14] = biological target: Protein disulfide-isomerase (Homo sapiens, UniProt P07237); test: PDI inhibitors, insulin aggregation turbidity, dose response, biochemical, absorbance, cherry-picked samples (AID 602350); format: functional
[15] = biological target: Benomyl/methotrexate resistance protein (Candida albicans, UniProt P28873); test: CaMdr1 efflux pump inhibitor potency, dose response, singleplex, Cherry Pick1 hits (AID 588608); format: functional
Chain of Benomyl/methotrexate resistance protein (P28873 whole entry): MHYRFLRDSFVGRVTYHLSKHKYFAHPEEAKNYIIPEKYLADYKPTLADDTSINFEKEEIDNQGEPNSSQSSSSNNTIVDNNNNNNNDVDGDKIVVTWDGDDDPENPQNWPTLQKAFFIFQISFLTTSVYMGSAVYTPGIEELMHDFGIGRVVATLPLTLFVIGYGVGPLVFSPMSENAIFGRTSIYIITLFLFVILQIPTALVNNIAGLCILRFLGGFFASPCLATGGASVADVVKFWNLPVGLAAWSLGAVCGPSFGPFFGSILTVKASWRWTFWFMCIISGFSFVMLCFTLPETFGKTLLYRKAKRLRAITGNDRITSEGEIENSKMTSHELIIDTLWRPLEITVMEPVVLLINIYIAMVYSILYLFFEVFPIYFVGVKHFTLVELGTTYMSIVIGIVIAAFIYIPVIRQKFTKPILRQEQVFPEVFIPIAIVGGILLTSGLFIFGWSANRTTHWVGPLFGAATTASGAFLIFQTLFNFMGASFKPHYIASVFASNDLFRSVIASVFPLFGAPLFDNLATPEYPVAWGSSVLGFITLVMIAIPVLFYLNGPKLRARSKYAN

Chain of Protein disulfide-isomerase (P07237 whole entry): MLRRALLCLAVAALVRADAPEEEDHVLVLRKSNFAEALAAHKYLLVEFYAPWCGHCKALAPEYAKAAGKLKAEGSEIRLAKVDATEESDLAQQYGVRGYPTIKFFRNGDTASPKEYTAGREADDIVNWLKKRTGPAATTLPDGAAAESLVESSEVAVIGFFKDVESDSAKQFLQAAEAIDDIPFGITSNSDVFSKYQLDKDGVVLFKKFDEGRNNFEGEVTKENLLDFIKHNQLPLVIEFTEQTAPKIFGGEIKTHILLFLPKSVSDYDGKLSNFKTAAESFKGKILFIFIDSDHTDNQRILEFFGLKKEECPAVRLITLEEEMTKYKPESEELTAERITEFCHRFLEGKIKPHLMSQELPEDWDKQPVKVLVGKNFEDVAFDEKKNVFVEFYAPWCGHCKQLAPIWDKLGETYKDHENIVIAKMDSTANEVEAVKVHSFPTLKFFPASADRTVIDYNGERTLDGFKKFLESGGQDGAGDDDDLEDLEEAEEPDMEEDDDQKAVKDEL
Chain of Apoptotic protease-activating factor 1 (O14727 whole entry): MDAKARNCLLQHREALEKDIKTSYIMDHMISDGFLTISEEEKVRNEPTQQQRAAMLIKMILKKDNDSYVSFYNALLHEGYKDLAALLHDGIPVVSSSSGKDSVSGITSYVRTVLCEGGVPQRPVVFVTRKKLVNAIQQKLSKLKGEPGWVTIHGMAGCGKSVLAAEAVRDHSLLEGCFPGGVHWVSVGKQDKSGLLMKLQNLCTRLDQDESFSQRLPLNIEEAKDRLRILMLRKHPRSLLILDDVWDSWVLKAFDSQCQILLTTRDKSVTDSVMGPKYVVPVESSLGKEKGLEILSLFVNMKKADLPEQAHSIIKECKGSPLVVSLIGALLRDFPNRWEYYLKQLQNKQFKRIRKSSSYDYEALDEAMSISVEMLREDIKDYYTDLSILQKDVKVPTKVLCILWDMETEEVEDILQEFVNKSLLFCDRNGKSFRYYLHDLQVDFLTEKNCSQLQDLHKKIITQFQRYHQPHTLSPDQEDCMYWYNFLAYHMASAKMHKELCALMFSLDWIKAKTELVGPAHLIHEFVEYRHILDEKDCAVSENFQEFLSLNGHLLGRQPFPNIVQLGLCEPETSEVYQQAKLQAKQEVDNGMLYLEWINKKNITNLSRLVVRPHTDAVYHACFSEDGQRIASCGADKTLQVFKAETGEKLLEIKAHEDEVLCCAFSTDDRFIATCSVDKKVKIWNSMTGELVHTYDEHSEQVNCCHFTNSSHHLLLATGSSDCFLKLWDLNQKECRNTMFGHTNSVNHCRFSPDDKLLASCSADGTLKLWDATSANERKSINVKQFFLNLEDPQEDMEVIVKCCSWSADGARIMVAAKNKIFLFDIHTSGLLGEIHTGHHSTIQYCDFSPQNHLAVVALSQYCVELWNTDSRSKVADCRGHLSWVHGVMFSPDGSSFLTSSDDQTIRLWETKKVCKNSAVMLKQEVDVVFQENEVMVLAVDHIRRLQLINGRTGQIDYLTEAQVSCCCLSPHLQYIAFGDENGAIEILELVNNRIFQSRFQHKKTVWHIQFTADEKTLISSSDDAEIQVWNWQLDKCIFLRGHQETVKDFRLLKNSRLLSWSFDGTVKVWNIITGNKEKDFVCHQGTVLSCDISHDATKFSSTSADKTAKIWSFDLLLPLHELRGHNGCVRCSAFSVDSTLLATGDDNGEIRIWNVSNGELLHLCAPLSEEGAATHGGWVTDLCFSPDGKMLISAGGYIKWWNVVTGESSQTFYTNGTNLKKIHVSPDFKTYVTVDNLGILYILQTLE
Chain of Genome polyprotein (P29990 2492-3391 limits assumed): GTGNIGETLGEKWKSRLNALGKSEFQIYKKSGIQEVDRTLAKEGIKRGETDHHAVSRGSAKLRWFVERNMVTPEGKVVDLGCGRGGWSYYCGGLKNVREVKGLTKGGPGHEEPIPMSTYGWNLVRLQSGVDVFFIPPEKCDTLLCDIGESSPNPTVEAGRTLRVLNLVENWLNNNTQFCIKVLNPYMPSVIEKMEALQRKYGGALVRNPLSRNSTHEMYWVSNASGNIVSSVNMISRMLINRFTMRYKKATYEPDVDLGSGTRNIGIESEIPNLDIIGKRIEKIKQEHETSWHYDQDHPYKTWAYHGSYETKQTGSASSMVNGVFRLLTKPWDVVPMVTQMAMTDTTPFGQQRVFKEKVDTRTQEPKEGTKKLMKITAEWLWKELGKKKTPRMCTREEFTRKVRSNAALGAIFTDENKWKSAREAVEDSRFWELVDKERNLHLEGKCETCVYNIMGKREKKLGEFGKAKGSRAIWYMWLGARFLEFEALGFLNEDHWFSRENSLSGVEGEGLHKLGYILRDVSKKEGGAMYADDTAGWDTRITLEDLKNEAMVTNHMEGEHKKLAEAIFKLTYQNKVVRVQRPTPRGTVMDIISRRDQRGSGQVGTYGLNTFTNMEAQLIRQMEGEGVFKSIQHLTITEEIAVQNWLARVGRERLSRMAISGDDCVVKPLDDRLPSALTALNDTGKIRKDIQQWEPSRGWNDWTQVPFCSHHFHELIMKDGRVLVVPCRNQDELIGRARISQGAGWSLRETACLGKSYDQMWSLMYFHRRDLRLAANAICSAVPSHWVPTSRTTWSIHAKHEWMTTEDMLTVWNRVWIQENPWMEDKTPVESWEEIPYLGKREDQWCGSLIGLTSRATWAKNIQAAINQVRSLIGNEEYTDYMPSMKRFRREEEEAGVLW
Chain of Melanocortin receptor 4 (P32245 whole entry): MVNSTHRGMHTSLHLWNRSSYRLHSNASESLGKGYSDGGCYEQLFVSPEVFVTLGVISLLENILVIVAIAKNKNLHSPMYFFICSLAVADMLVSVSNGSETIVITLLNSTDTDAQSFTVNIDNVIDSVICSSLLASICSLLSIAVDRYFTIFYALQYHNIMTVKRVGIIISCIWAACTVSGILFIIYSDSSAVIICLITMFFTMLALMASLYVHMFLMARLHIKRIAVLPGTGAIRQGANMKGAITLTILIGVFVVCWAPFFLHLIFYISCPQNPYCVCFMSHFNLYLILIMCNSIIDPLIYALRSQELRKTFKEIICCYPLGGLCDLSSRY

Cc1cc(C)n(C(C)CC(=O)Nc2cccnc2)n1 (stereo not given)
EC50 [1]: > 100 µM (inactive)

CCOc1cc(/C=C(/C#N)c2nc(-c3ccc(C)cc3)no2)cc(Cl)c1O
IC50 (Caspase-3 [2]): > 99 µM (inactive) | IC50 [3]: > 99 µM (inactive) | IC50 [4]: > 99 µM (inactive) | IC50 [5]: > 99 µM (inactive)

CCN(CC)c1ccc(/C=C/c2noc(-c3ccccc3O)n2)cc1
IC50 [6]: 43 µM (active) | IC50 (Caspase-3 [2]): > 99 µM (inactive) | IC50 [3]: > 99 µM (inactive) | IC50 (Caspase-3 [7]): 48 µM (active) | IC50 [4]: > 99 µM (inactive) | IC50 [8]: 35 µM (active) | IC50 [5]: 30.7 µM (active) | IC50 [9]: 14 µM (active)

Cc1[nH]c(C)c(C(=O)/C=C/c2ccc([N+](=O)[O-])cc2)c1C
IC50 (Melanocortin receptor 4): > 64.6 µM (inactive) | IC50 [10]: > 64.6 µM (inactive)

COc1ccc(C(=O)c2coc3c2C(=O)C(=O)c2ccccc2-3)cc1
EC50 [11]: 1.84 µM (active) | EC50 (Streptokinase A): > 150 µM (not active) | EC50 (Streptococcus): 14.7 µM (active) | IC50 (Hexokinase HKDC1): 11.3 µM (active) | CC50 (Vero [12]): > 40 µM (active) | CC50 (Vero [13]): > 25 µM (active) | IC50 (Genome polyprotein): 34.5 µM (active)

C[C@H](CO)N1C[C@H](C)[C@H](CN(C)Cc2ccccc2)Oc2ccc(NC(=O)Nc3ccccc3)cc2CC1=O
AC50 [14]: 19.5 µM (active)

COc1cccc(C2CC(c3ccccc3)=NN2S(=O)(=O)c2ccc(C)cc2)c1OC (stereo not given)
EC50 [15]: 9.58 µM (active)

C[C@@H]1CN([C@@H](C)CO)C(=O)c2cccc(NS(C)(=O)=O)c2O[C@H]1CN(C)Cc1ccc(Oc2ccccc2)cc1
AC50 [14]: 19.5 µM (active) and 7.04 µM (active)
